From patent publication US20250345492A1, “AN ANTIBACTERIAL POLYPEPTIDE COMPOUND, A MEDICAL DEVICE, HYDROGEL AND USE THEREOF” (priority 2020, published 2025) come the findings set out here.

Series [1] is described as follows: Acute toxicity in mice. More on the design: species or system Kunming mice. The conditions noted are these: both sexes, Kunming, mouse, in vivo, ip, intraperitoneal injection, Karber method. Here is the method: Acute toxicity of the compounds was determined by measuring the acute toxicity in mice with the compounds.
Taking compounds 2, 8, 9, 13 and 15 of the present invention as examples, […]. The mice used in this test were Kunming mice, which were placed in constant-temperature environment (22±1° C.) and could freely obtain water and food. Simply, 132 healthy Kunming mice were randomly divided into 11 groups, with 12 mice in each group (half male and half female), wherein, 5 groups were intraperitoneally injected with 0.2 ml of the compounds of different doses (100-1000 mg/kg), and the control group was intraperitoneally injected with normal saline. In this experiment, melittin was used as a reference control, and the other 5 groups were intraperitoneally injected with melittin of different doses (10-32 mg/kg). The state of mice was observed and recorded after 2 hours of administration, and then observed twice a day for 14 days, and the survival rates of the mice were recorded.

The subject of series [2] is Bacillus subtilis (ATCC 23857). The conditions noted are these: ATCC 23857. From the text: (§1) With respect to the determination of antibacterial activity and antifungal activity of the antibacterial polypeptide compounds, the bacterial strains employed included: E. coli (ATCC 25922), E. coli (ATCC 43837), Pseudomonas aeruginosa (ATCC 27853), Klebsiella pneumoniae (ATCC 700603), Cronobacter sakazakii (ATCC 29544), Staphylococcus aureus (ATCC 29213), Bacillus subtilis (ATCC 23857) and Staphylococcus epidermidis (ATCC 12228); and the fungal strains employed included Candida albicans (ATCC 14053), Candida glabrata (ATCC 2001), Candida parapsilosis (ATCC 22019), Candida tropicalis (ATCC 750) and Candida krusei (ATCC 6258), all of which were standard strains from American Type Culture Collection. In addition, drug-resistant strains S-1a, S-2a, S-3a, S-4a, E-1b, E-2b, E-3b, E-4b, E-5b, P-1c, P-2c, P-3c, P-4c, P-5c, and clinically isolated fungal strains Candida glabrata 2-1 and Candida albicans 14-1, 14-2 and 14-3 were employed, all which were clinically isolated.
(§2) Simply, a proper amount of the cryopreserved bacterium or fungus was added to fresh MH/SD medium, and cultured on a shaker overnight at 180 rpm at 37° C. The obtained cells were seeded again and cultured on a shaker for 4-5 hours to obtain cells in logarithmic phase. The resulting cells were added to a 96-well plate (1×10^5 CFU/ml, 100 μL/well), and then 100 μL of polypeptide with different concentrations (1-256 μM) twice the final concentrations was added to corresponding well according to the 2-fold serial dilution method. The fresh medium was used as a negative control, which was prepared in triplicate for each concentration. After dosing, the 96-well plate was placed in an incubator at constant 37° C. and humidity for 12 hours to observe the results. According to naked eye observations, the concentration of the compound in the first transparent well following the turbid wells was recorded as the MIC of the compound, namely, the MIC value of the compound to the bacterium or fungus.

The test system of series [3] is C. albicans ATCC14053. The conditions noted are these: ATCC14053.
Excerpt: as §1, §2

Series [4] relates to C. glabrata ATCC22019. The conditions noted are these: ATCC22019.
Excerpt: as §1, §2

Series [5] concerns C. krusei ATCC6258. The conditions noted are these: ATCC6258.
Excerpt: as §1, §2

Series [6] has as its system C. parapsilosis ATCC2001. The conditions noted are these: ATCC2001.
Excerpt: as §1, §2

In series [7] the test system is C. tropicalis ATCC750. The conditions noted are these: ATCC750.
Excerpt: as §1, §2

Series [8] deals with Cronobacter sakazakii (ATCC 29544). The conditions noted are these: ATCC 29544.
Excerpt: as §1, §2

Series [9] has as its system E. coli (ATCC 25922). The conditions noted are these: ATCC 25922.
Excerpt: as §1, §2

Series [10] deals with Pseudomonas aeruginosa (ATCC 27853). The conditions noted are these: standard strain.
Excerpt: as §1, §2

In series [11] the test system is Staphylococcus aureus (ATCC 29213). The conditions noted are these: ATCC 29213.
Excerpt: as §1, §2

The subject of series [12] is Staphylococcus epidermidis (ATCC 12228). The conditions noted are these: ATCC 12228.
Excerpt: as §1, §2

The test system of series [13] is E-1b, clinical isolated drug-resistant strain ESBL. The conditions noted are these: strain E-1b (ESBL).
Excerpt: as §1, §2

In series [14] the test system is E-2b, clinical isolated drug-resistant strain ESBL. The conditions noted are these: strain E-2b (ESBL).
Excerpt: as §1, §2

The test system of series [15] is E-3b, clinical isolated drug-resistant strain ESBL. The conditions noted are these: strain E-3b (ESBL).
Excerpt: as §1, §2

Series [16] deals with E-4b, clinical isolated drug-resistant strain ESBL. The conditions noted are these: strain E-4b (ESBL).
Excerpt: as §1, §2

Series [17] concerns E-5b, clinical isolated drug-resistant strain ESBL. The conditions noted are these: strain E-5b (ESBL).
Excerpt: as §1, §2

In series [18] the test system is P-1c, clinical isolated drug-resistant strain PA. The conditions noted are these: strain P-1c (PA).
Excerpt: as §1, §2

In series [19] the test system is P-2c, clinical isolated drug-resistant strain PA. The conditions noted are these: strain P-2c (PA).
Excerpt: as §1, §2

Series [20] relates to P-3c, clinical isolated drug-resistant strain PA. The conditions noted are these: strain P-3c (PA).
Excerpt: as §1, §2

For series [21], the system named is P-4c, clinical isolated drug-resistant strain PA. The conditions noted are these: strain P-4c (PA).
Excerpt: as §1, §2

Series [22] deals with P-5c, clinical isolated drug-resistant strain PA. The conditions noted are these: strain P-5c (PA).
Excerpt: as §1, §2

In series [1], `CC[C@H](C)[C@H](NC(=O)CN)C(=O)NCC(=O)N[C@@H](C)C(=O)N[C@H](C(=O)N[C@@H](CC(C)C)C(=O)N[C@@H](CCCCN)C(=O)N[C@H](C(=O)N[C@@H](CC(C)C)C(=O)N[C@H](C(=O)N[C@H](C(=O)NCC(=O)N[C@@H](CC(C)C)C(=O)N1CCC[C@H]1C(=O)N[C@@H](C)C(=O)N[C@@H](CC(C)C)C(=O)N[C@H](C(=O)N[C@@H](CO)C(=O)N[C@@H](Cc1c[nH]c2ccccc12)C(=O)N[C@H](C(=O)N[C@@H](CCCCN)C(=O)N[C@@H](CCCNC(=N)N)C(=O)N[C@@H](CCCCN)C(=O)N[C@@H](CCCNC(=N)N)C(=O)N[C@@H](CCC(N)=O)C(=O)N[C@@H](CCC(N)=O)C(N)=O)[C@@H](C)CC)[C@@H](C)CC)[C@@H](C)O)[C@@H](C)O)C(C)C)C(C)C` [melittin magainin, melittin, reference compound] had an LD50 at 14 days of 20 mg/kg.
Consider H-PFRLRLRL-NH2 [Compound 7], for which, in series [2], the “MIC B. subtilis ATCC23857” value turned out to be 8 µM. For the same compound, the “MIC C. albicans ATCC14053” value in [3] amounted to 8 µM. Also, the “MIC C. glabrata ATCC22019” value in series [4] was 8 µM. The “MIC C. krusei ATCC6258” value in [5] came out at 32 µM. Further, the “MIC C. parapsilosis ATCC2001” value in series [6] was 8 µM. Moreover, the “MIC C. tropicalis ATCC750” value in [7] is 32 µM. Further, the “MIC C. sakazakii ATCC29544” value in series [8] was 32 µM. Moreover, in series [9], the “MIC C. coli ATCC25922” value stood at 8 µM. Further, the “MIC P. aerugmosa ATCC27853” value in series [10] was found to be 8 µM. Moreover, in [11], the “MIC S. aureus ATCC29213” value is 64 µM. Further, the “MIC S. epidermidis ATCC12228” value in series [12] stood at 16 µM.
As for H-PFRLSLHL-NH2 [Compound 4], the “MIC B. subtilis ATCC23857” value in [2] worked out at 16 µM. For the same compound, the “MIC C. albicans ATCC14053” value in series [3] stood at 32 µM. In [4], the “MIC C. glabrata ATCC22019” value came to 32 µM. Moreover, the “MIC C. krusei ATCC6258” value in series [5] was 32 µM. Also, the “MIC C. parapsilosis ATCC2001” value in series [6] turned out to be 16 µM. In addition, the “MIC C. tropicalis ATCC750” value in [7] was 32 µM. Also, the “MIC C. sakazakii ATCC29544” value in series [8] was found to be 32 µM. The “MIC C. coli ATCC25922” value in series [9] worked out at 32 µM. Moreover, the “MIC P. aerugmosa ATCC27853” value in series [10] turned out to be 32 µM. Moreover, in series [11], the “MIC S. aureus ATCC29213” value came to 128 µM. Besides, in series [12], the “MIC S. epidermidis ATCC12228” value stood at 32 µM.
With H-PFRLSLRL-NH2 [Compound 6], the “MIC B. subtilis ATCC23857” value in series [2] was found to be 16 µM. Further, the “MIC C. albicans ATCC14053” value in [3] was found to be 32 µM. The “MIC C. glabrata ATCC22019” value in series [4] turned out to be 8 µM. In series [5], the “MIC C. krusei ATCC6258” value was found to be 32 µM. The “MIC C. parapsilosis ATCC2001” value in [6] was determined as 16 µM. Moreover, in [7], the “MIC C. tropicalis ATCC750” value came to 16 µM. Also, the “MIC C. sakazakii ATCC29544” value in series [8] came out at 16 µM. The “MIC C. coli ATCC25922” value in series [9] came to 8 µM. The “MIC P. aerugmosa ATCC27853” value in series [10] is 32 µM. In addition, the “MIC S. aureus ATCC29213” value in series [11] worked out at 64 µM. Also, the “MIC S. epidermidis ATCC12228” value in series [12] amounted to 16 µM.
For the compound H-PWRLSLHL-NH2 [Compound 12], in series [2], the “MIC B. subtilis ATCC23857” value is 16 µM. For the same compound, in [3], the “MIC C. albicans ATCC14053” value was 32 µM. Also, in [4], the “MIC C. glabrata ATCC22019” value stood at 16 µM. In [5], the “MIC C. krusei ATCC6258” value stood at 32 µM. In series [6], the “MIC C. parapsilosis ATCC2001” value is 16 µM. Moreover, the “MIC C. tropicalis ATCC750” value in series [7] worked out at 16 µM. Also, in [8], the “MIC C. sakazakii ATCC29544” value was determined as 16 µM. In addition, the “MIC C. coli ATCC25922” value in [9] was 16 µM. In addition, the “MIC P. aerugmosa ATCC27853” value in [10] came out at 32 µM. For the same compound, in series [11], the “MIC S. aureus ATCC29213” value is 32 µM. For the same compound, in [12], the “MIC S. epidermidis ATCC12228” value was determined as 8 µM.
For H-PWRLSLRL-NH2 [Compound 14], the “MIC B. subtilis ATCC23857” value in series [2] was 8 µM. The “MIC C. albicans ATCC14053” value in [3] came to 8 µM. Also, the “MIC C. glabrata ATCC22019” value in series [4] was 8 µM. Further, the “MIC C. krusei ATCC6258” value in series [5] amounted to 32 µM. In series [6], the “MIC C. parapsilosis ATCC2001” value came to 8 µM. Also, the “MIC C. tropicalis ATCC750” value in [7] turned out to be 8 µM. Besides, the “MIC C. sakazakii ATCC29544” value in series [8] was determined as 8 µM. The “MIC C. coli ATCC25922” value in series [9] was 8 µM. The “MIC P. aerugmosa ATCC27853” value in series [10] turned out to be 8 µM. In series [11], the “MIC S. aureus ATCC29213” value was 32 µM. For the same compound, the “MIC S. epidermidis ATCC12228” value in [12] stood at 16 µM.
Regarding gentamicin [reference compound], the MIC in [13], in series [14], in series [15], in series [16], in series [17] and in [18] was 50 µM each time. Besides, the MIC in series [19] stood at 50 µM; in series [20], 25 µM; in [21], 50 µM; in series [22] it was 50 µM.

As usually defined, the LD50 is the dose at which mortality reaches 50%. High values mean lower toxicity, low ones greater toxicity. As a reminder, the MIC is the lowest concentration found to suppress growth. Read a low MIC as greater potency.
